The half-life is the time in which the quantity being followed falls by half. Read a low half-life as fast loss. The bioavailability is the share of a dose that reaches the circulation, judged against a reference dose that is usually intravenous. Lower therefore signals little systemic uptake.

A short description of series [1]: Half life in rat. Particulars: in vivo. The class given is ADME, organism-based.
Series [2] is described as follows: Drug degradation in human liver microsomes at 60 mins. Particulars: read-out: Drug degradation. It is filed as ADME, Microsome. For orientation: Liver microsomes are vesicles of endoplasmic reticulum, rich in cytochrome P450 enzymes.
Series [3] is described as follows: Ratio of drug level in brain to plasma in rat measured 6 hrs post dose. It is filed as ADME. Particulars: brain and plasma, read-out: BPR.
The nature of series [4]: Oral bioavailability in rat. It is filed as ADME, organism-based. Particulars: in vivo.
Series [5] is described as follows: Drug degradation in human hepatocytes at 4 hrs. The class given is ADME, cell-based, Hepatocyte. The following applies: read-out: Drug degradation.

Each structure is given as a SMILES string.

In series [1], `O=C(N[C@@H]1C2CCN(CC2)[C@H]1Cc1cccnc1)c1cc2ccccc2o1` [BRADANICLINE] had a half-life of 2 h. The metabolised at 1 h in series [2] was below 25%. Besides, the Kp at 6 h in series [3] turned out to be 0.4. The same molecule came in with a bioavailability in series [4] of 20%. Also, in series [5], the metabolised at 4 h was 27%.

The record behind these values is ChEMBL document CHEMBL2177097, “Discovery of (2S,3R)-N-[2-(pyridin-3-ylmethyl)-1-azabicyclo[2.2.2]oct-3-yl]benzo[b]furan-2-carboxamide (TC-5619), a selective α7 nicotinic acetylcholine receptor agonist, for the treatment of cognitive disorders” (J Med Chem, 2012).
